Patent publication US6103700A, “Fluoro labelled anthracyclinone and anthracycline derivatives” (Pharmacia & Upjohn S.p.A., priority 1996, dated 2000)

Columns and labels:
Aβ25-35 peptide = Aβ25-35 peptide (Homo sapiens, UniProt P05067); assay: Antifibrillogenic activity, thioflavine T (ThT) assay with Aβ25-35 peptide; type: biochemical; details: compound 30 μM, Aβ25-35 peptide 100 μM, 50 μM phosphate buffer pH 5, 25° C., 24 hours; ThT 47 μM; ex 420 nm, em 490 nm; less fluorescence = less amyloid; read-out: ThT fluorescence (% of control)
Experimental: The compounds of the present invention are also endowed with antifibrillogenic activity. When Aβ peptides are incubated with the compounds, a reduction in the formation of amyloid fibrils is observed. The amount of amyloid that results from peptide aggregation can be evaluated using the thioflavine T (ThT) assay as reported in the literature by Naiki et al., Analytical Biochemistry 1989, vol. 177, p. 244 and by H. LeVine III, Protein Science 1993, vol.2, p. 404. Compounds are incubated at a concentration of 30 μM, in 50 μM phosphate buffer pH 5 at 25° C. during 24 hours, with 100 μM peptide. The incubated samples are then diluted with sodium citrate buffer pH 5 containing 47 μM ThT. Fluorescence was measured with excitation at 420 nm and emission at 490 nm in a Kontron fluorescence spectrophotometer and the values were averaged after subtracting the background fluorescence of ThT. The less the fluorescence the less the amount of amyloid formed during the incubation period.
The following data obtained with the Aβ25-35 peptide are reported as examples.

Aβ25-35 fibrils = Aβ25-35 fibrils (Homo sapiens, UniProt P05067); assay: Binding of anthracyclinones and anthracyclines to Aβ25-35 fibrils (fluorescent detection of bound compound); details: 10% dimethylsulfoxide in distilled water, 60 minutes, room temperature, rectangular hyperbola (binding isotherm), read-out: EC50 (affinity of the test compounds for the Aβ fibrils)
Experimental: Binding of anthracyclinones and anthracyclines to Aβ fibrils
Fibrils from Aβ25-35 peptide are suspended in a solution of 10% dimethylsulfoxide in distilled water containing the test compound at various concentrations and incubated at room temperature for 60 minutes. After incubation, the samples are centrifuged at 15000 g for 10 minutes at room temperature and the supernatant withdrawn. Fibril pellets are washed three times with 0.3 ml of 10% DMSO in distilled water, dissolved in ethanol and the bound compound is quantified by fluorescent detection. EC50 are then calculated using rectangular hyperbola (binding isotherm) equation and represents the affinity of the test compounds for the Aβ fibrils.

Aβ1-40 fibrils = assay: Binding to Aβ1-40 fibrils (filtration, HPLC quantification of bound compound); details: 3% dimethylsulfoxide in water, 15 minutes, room temperature, Hill equation
Experimental: The precipitated fibrils are centrifuged, washed with distilled water, centrifuged again and resuspended in distilled water at a concentration of […]. The fibril suspension is sonocated for one minute and freezed at -20° C. in aliquots until use. […] The resulting suspension is incubated at room temperature for 15 minutes. After incubation, the suspension is loaded onto a Millipore ultrafree MC filter (0.22 μm pore retention) and centrifuged for 5 minutes at 4° C. […] The amount of bound compound is quantified by HPLC. The aspecific binding of the compounds to the filter is evaluated by processing samples of the compounds, as previously described, in the absence of fibrils. The amount of compound bound to the filter is subtracted from the total binding value obtained in the presence of fibrils. Binding parameters were estimated by computerised non-linear regression analysis according to the Hill equation. Data are expressed as nanomoles of compound bound per mg of peptide monomer (Bmax)

Row | Compound | remaining activity at 30 µM (Aβ25-35 peptide) [%] | EC50 (Aβ25-35 fibrils) [µM] | Bmax (nanomoles of compound bound per mg of peptide monomer) (Aβ1-40 fibrils) [nmoles/mg Aβ1-40]
1 | COc1cccc2c1C(=O)c1c(O)c3c(c(O)c1C2=O)C[C@@](O)(C(=O)CN(Cc1ccccc1)CC(F)(F)F)C[C@@H]3O [Compound A6, 14-[N-benzyl-N-(2,2,2-trifluoroethyl)]amino-daunomycinone] | 35 |  | 
2 | COc1cccc2c1C(=O)c1c(O)c3c(c(O)c1C2=O)C[C@@](O)(C(=O)CO)C[C@@H]3O[C@H]1C[C@H](N)[C@H](I)[C@H](C)O1 [IDOX, iododoxorubicin, reference compound] | 41 | 52 ± 10.7 | 122.2
3 | COc1cccc2c1C(=O)c1c(O)c3c(c(O)c1C2=O)C[C@@](O)(C(=O)CN1CCN(C(=O)C(F)(F)F)CC1)C[C@@H]3O [Compound A2, 14-(4-trifluoroacetylpiperazin-1-yl)-daunomycinone] | 22.2 |  | 
4 | COc1cccc2c1C(=O)c1c(O)c3c(c(O)c1C2=O)C[C@@](O)(C(=O)CO)C[C@@H]3O[C@H]1C[C@H](NC(=O)C(F)(F)F)[C@H](I)[C@H](C)O1 [Compound A1, N-trifluoroacetyl-4'-iododoxorubicin] | 20.6 |  | 
5 | CCN(CC(=O)[C@]1(O)Cc2c(O)c3c(c(O)c2[C@@H](O)C1)C(=O)c1c(OC)cccc1C3=O)Cc1cc(C(F)(F)F)cc(C(F)(F)F)c1 [Compound A5, 14-[N-ethyl-N-(3,5-bis-trifluoromethylphenyl)methyl]daunomycinone] | 23.1 |  | 223.1
6 | COc1cccc2c1C(=O)c1c(O)c3c(c(O)c1C2=O)C[C@@](O)(C(=O)CN1CCN(S(=O)(=O)C(F)(F)F)CC1)C[C@@H]3O [Compound A3, 14-(4-trifluoromethanesulphonylpiperazin-1-yl)-daunomycinone] | 23 | 8.16 ± 1.32 | 
7 | COc1cccc2c1C(=O)c1c(O)c3c(c(O)c1C2=O)C[C@@](O)(C(=O)CN1CCN(c2cccc(C(F)(F)F)c2)CC1)C[C@@H]3O [Compound A4, 14-[4-(3-trifluoromethylphenyl)piperazin-1-yl]-daunomycinone] | 22.3 |  | 
8 | COc1cccc2c1C(=O)c1c(O)c3c(c(O)c1C2=O)C[C@@](O)(C(=O)CN1CC=CCC1)C[C@@H]3O[C@H]1C[C@H](NC(=O)C(F)(F)F)[C@H](I)[C@H](C)O1 [Compound A7, 14-(1,2,3,6-tetrahydropyridin-1-yl)-4'-deoxy-4'-iodo-3'-N-trifluoroacetyl daunorubicin] | 33.2 |  | 
